According to US4576940A, “Anti-allergic 3-indolecarboxamides” (Yoshitomi Pharmaceutical Industries, Ltd., priority 1983, dated 1986):
Where a name gives a salt, the structure may show the parent alone. Read-outs that look alike come from different tables or passages of the source.

How the values were obtained:
5-lipoxygenase = target: T1, 5-lipoxygenase (Cavia porcellus, UniProt A0A286X958); assay: 5-lipoxygenase inhibition (arachidonic acid induced chemiluminescence of peripheral leukocytes in guinea pigs); format: cell-based, guinea pig
T1 construct: Guinea pigs were anesthetized with ethyl ether, and the peripheral blood was collected in heparinized syringes; endogenous in cells; host or cells: guinea pig peripheral blood leukocytes (dextran sedimentation, erythrocytes lysed)
T1 sequence (A0A286X958 1-674): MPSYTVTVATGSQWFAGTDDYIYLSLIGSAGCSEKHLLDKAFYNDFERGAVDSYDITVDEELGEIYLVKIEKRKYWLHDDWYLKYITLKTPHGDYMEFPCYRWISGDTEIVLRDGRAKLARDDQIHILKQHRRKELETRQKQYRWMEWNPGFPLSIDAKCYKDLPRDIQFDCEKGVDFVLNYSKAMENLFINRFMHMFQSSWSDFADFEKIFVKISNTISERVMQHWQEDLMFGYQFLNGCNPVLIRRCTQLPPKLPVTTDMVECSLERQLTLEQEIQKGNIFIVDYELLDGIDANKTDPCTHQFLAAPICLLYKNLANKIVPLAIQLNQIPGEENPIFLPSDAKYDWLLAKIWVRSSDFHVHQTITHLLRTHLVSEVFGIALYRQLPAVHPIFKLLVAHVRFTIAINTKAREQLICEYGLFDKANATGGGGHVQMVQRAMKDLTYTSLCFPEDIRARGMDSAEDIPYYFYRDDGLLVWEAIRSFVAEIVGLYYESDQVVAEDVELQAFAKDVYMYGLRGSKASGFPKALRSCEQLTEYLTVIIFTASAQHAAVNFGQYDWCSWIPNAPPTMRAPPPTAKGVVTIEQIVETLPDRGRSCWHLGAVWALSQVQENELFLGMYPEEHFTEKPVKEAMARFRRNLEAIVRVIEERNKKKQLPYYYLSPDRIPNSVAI
Description: 1. Inhibitory activity on 5-lipoxygenase (Effect of test compounds on arachidonic acid induced chemiluminescence of peripheral leukocytes in guinea pigs)
(1) Isolation of leukocytes and preparation of leukocyte suspension
Guinea pigs were anesthetized with ethyl ether, and the peripheral blood was collected in heparinized syringes (10 U/ml, blood) from the abdominal aorta through a needle.
50 ml of a 6% dextran solution (molecular weight 177,000, Nakarai Chemicals Ltd.) was added to 100 ml of blood. This suspension was gently mixed, and was allowed to sediment for 60 minutes at room temperature. The upper leukocyte-rich suspension was centrifuged at 400×g for 10 minutes at room temperature. Tris-HCl buffer (pH 7.65) containing 5.0 ml of a 0.83% ammonium chloride solution was added to the cell pellet to lyse remaining erythrocytes. This suspension was centrifuged at 150×g for 10 minutes at 4° C. Eagle's MEM (10 ml) containing 10% fetal bovine serum (Flow Laboratories, Inc.) was added to the cell pellet. This suspension was centrifuged under the same conditions. The cell pellet was suspended in an equal volume of phosphate buffered saline (pH 7.4) containing 0.2% glucose and 0.2% bovine serum albumin, and this mixture was centrifuged under the same conditions. The above procedure was performed twice, and the cell pellet was suspended in the above buffer to adjust the leukocyte counts to 5×10^6 cells/ml.
(2) Chemiluminescence assay
Chemiluminescence was measured by the method of Yoshimoto et al. which is described in Biochem. Biophys. Res. Commun. 107, 779-784, 1982. Briefly, 0.3 ml of a leukocyte suspension was preincubated with 5 μl of a test compound solution of phosphate-buffered saline as controls, 0.05 ml of 1 mM luminol (Nakarai Chemicals, Ltd.) and 0.05 ml of 100 μM indomethacin (Sumitomo Chemical Co. Ltd.) After preincubation at 26° C. for 2 minutes, 100 μl of 2 mM arachidonic acid (Sigma) was added to the reaction mixture. Chemiluminescence was recorded continuously by an Aminco Chem-Glow model J4-7441S photometer equipped with a Hitachi model 056 recorder, and the peak height of luminol intensity was measured. The effects of test compounds were expressed as IC50 values (μM).

histamine induced asthma = assay: Inhibitory effect on histamine induced asthma in guinea pigs; format: in vivo, guinea pig (female Hartley); details: Cavia porcellus, po, read-out: Antihistaminic activity (% inhibition)
Description: 2. Inhibitory effect on histamine induced asthma in guinea pigs
The experiment was performed according to the method of Suyama et al. which is described in Jpn. J. Allergol. 15, 549-556, 1966. Female Hartley guinea pigs weighing 300-400 g were used in groups of 5 or more. One hour after the oral administration of test compound solution, animals were placed in a transparent square box and exposed to a 0.2% histamine hydrochloride (Nakarai Chemicals, Ltd.) saline aerosol using an ultrasonic nebulizer (Nihon Kohden, TUR-3000). Protection was assessed during the exposure period (5 minutes) by the presence or absence of loss of righting due to dyspnea. The effects of test compounds were expressed in terms of percent inhibition.

Acute toxicity in mice = details: mouse, in vivo, 14 days observation
Description: (§1) 3. Acute toxicity in mice and rats
(§2) The acute toxicity of test compound No. 2 was evaluated in 120 male mice weighing 30-42 g and 120 female mice weighing 23-35 g, and in 56 male rats weighing 150-190 g and 56 female rats weighing 115-150 g by oral and intraperitoneal administration. […] LD50 values were calculated by probit method.

Acute toxicity in rats = details: rat, in vivo, 14 days observation
Description: as §1, §2

[1] = background, in words; cited from earlier work
[2] = prior art, in words; cited from earlier work
[3] = prior art, in words; cited from earlier work; remark: listed apart in the source
[4] = prior art, in words; cited from earlier work; remark: listed apart in the source
[5] = arachidonic acid induced chemiluminescence, guinea pig leukocytes, median inhibition concentration, read-out: 5-lipoxygenase inhibiting activity IC50

**Q.** Which IC50 (5-lipoxygenase) does the source give for CCCCn1c(C)c(C(=O)NC2CCN(CCc3ccccc3)CC2)c2cc(O)ccc21 [Example 2, 1-butyl-5-hydroxy-2-methyl-N-(1-(2-phenylethyl)-4-piperidyl)indole-3-carboxamide] here?
**A.** 450 nM

**Q.** And the inhibition in vivo at 0.5 mg/kg (histamine induced asthma; 1 h)?
**A.** 40%

**Q.** What about the inhibition in vivo at 2.5 mg/kg (histamine induced asthma; 1 h) of the same molecule?
**A.** 100%

**Q.** What about the LD50 at 336 h (Acute toxicity in mice; ip, female mice) of the same molecule?
**A.** 1470 mg/kg

**Q.** And the LD50 at 336 h (Acute toxicity in mice; ip, male mice)?
**A.** 1430 mg/kg

**Q.** And the LD50 at 336 h (Acute toxicity in mice; po, female mice)?
**A.** > 10400 mg/kg

**Q.** And the LD50 at 336 h (Acute toxicity in mice; po, male mice)?
**A.** > 12000 mg/kg

**Q.** And the LD50 at 336 h (Acute toxicity in rats; ip, female rats)?
**A.** 1930 mg/kg

**Q.** And the LD50 at 336 h (Acute toxicity in rats; ip, male rats)?
**A.** 1940 mg/kg

**Q.** And the LD50 at 336 h (Acute toxicity in rats; po, female rats)?
**A.** > 9000 mg/kg

**Q.** What about the LD50 at 336 h (Acute toxicity in rats; po, male rats) of the same molecule?
**A.** > 9000 mg/kg

**Q.** With CCCCC/C=C\C\C=C/C=C/C=C/[C@@H](SC[C@H](N)C(=O)NCC(=O)O)[C@@H](O)CCCC(=O)O [LTD4] as the molecule, how does the bronchoconstriction activity [1] read?
**A.** strong bronchoconstriction activity

**Q.** With Cc1c(C(=O)NC2CCN(CCc3ccccc3)CC2)c2cc(O)ccc2n1-c1ccccc1 [Example 29, 5-Hydroxy-2-methyl-N-(1-(2-phenylethyl)-4-piperidyl)-1-phenylindole-3-carboxamide hydrochloride] as the molecule, how does the IC50 (5-lipoxygenase; [5]) read?
**A.** 1400 nM

**Q.** What about the inhibition in vivo at 0.5 mg/kg (histamine induced asthma; 0.5 mg/kg, p.o., 1 hour before histamine aerosol, guinea pigs) of the same molecule?
**A.** 33%

**Q.** With CN(C)CCOC(c1ccccc1)c1ccccc1 [Comparison B, Diphenhydramine, reference compound] as the molecule, how does the inhibition in vivo at 5 mg/kg (histamine induced asthma; 1 h) read?
**A.** 20%

**Q.** And the inhibition in vivo at 25 mg/kg (histamine induced asthma; 1 h)?
**A.** 100%

**Q.** Which IC50 (5-lipoxygenase) does the source give for Cc1c(C(=O)NC2CCN(CCc3ccccc3)CC2)c2cc(O)ccc2n1Cc1ccccc1 [Example 4, 1-benzyl-5-hydroxy-2-methyl-N-(1-(2-phenylethyl)-4-piperidyl)indole-3-carboxamide hydrochloride] here?
**A.** 850 nM

**Q.** What about the inhibition in vivo at 0.5 mg/kg (histamine induced asthma; 1 h) of the same molecule?
**A.** 60%

**Q.** With CCCCn1c(C)c(C(=O)NC2CCN(CCOc3ccccc3)CC2)c2cc(O)ccc21 [Example 31, 1-Butyl-5-hydroxy-2-methyl-N-(1-(2-phenoxyethyl)-4-piperidyl)indole-3-carboxamide] as the molecule, how does the IC50 (5-lipoxygenase) read?
**A.** 260 nM

**Q.** Which inhibition in vivo at 0.5 mg/kg (histamine induced asthma; 1 h) does the source give for Cc1c(C(=O)NC2CCN(CCc3ccccc3)CC2)c2cc(O)ccc2n1C(C)C [Example 5, 5-hydroxy-1-isopropyl-2-methyl-N-(1-(2-phenylethyl)-4-piperidyl)indole-3-carboxamide hydrochloride] here?
**A.** 100%

**Q.** With Cc1c(C(=O)NC2CCN(CCCc3ccccc3)CC2)c2cc(O)ccc2n1-c1ccccc1 [Example 26, 5-Hydroxy-2-methyl-1-phenyl-N-(1-(3-phenylpropyl)-4-piperidyl)indole-3-carboxamide hydrochloride monohydrate] as the molecule, how does the IC50 (5-lipoxygenase; [5]) read?
**A.** 2500 nM

**Q.** Which IC50 (5-lipoxygenase; [5]) does the source give for Cc1c(C(=O)NC2CCN(CCc3ccccc3)CC2)c2cc(O)ccc2n1-c1ccc(Cl)cc1 [Example 24, 1-(p-Chlorophenyl)-5-hydroxy-2-methyl-N-(1-(2-phenylethyl)-4-piperidyl)indole-3-carboxamide hydrochloride] here?
**A.** 4200 nM

**Q.** For CCCCCCn1c(C)c(C(=O)NC2CCN(CCc3ccccc3)CC2)c2cc(O)ccc21 [Example 10, 1-Hexyl-5-hydroxy-2-methyl-N-(1-(2-phenylethyl)-4-piperidyl)indole-3-carboxamide hydrochloride monohydrate], which inhibition in vivo at 0.5 mg/kg (histamine induced asthma; 1 h) is on record?
**A.** 20%

**Q.** What about the inhibition in vivo at 2.5 mg/kg (histamine induced asthma; 1 h) of the same molecule?
**A.** 100%

**Q.** Which IC50 (5-lipoxygenase) does the source give for Cc1c(C(=O)NC2CCN(CCc3ccccc3)CC2)c2cc(O)ccc2n1C1CCCCC1 [Example 12, 1-Cyclohexyl-5-hydroxy-2-methyl-N-(1-(2-phenylethyl)-4-piperidyl)indole-3-carboxamide hydrochloride hemihydrate] here?
**A.** 1700 nM

**Q.** With O=C(NC1CCN(CCc2c[nH]c3ccccc23)CC1)c1c[nH]c2ccccc12 [3-[2-(4-[indole-3-carboxamido]-1-piperidyl)ethyl]indole] as the molecule, how does the anti-histaminic activity [2] read?
**A.** very weak anti-histaminic activity

**Q.** And the hypotensive effect [3]?
**A.** moderate hypotensive effect

**Q.** What about the anti-inflammatory action [4] of the same molecule?
**A.** effective anti-inflammatory action

**Q.** Which inhibition in vivo at 0.5 mg/kg (histamine induced asthma; 1 h) does the source give for Cc1c(C(=O)NC2CCN(CCc3ccccc3)CC2)c2cc(O)ccc2n1CC(C)C [Example 6, 5-Hydroxy-1-isobutyl-2-methyl-N-(1-(2-phenylethyl)-4-piperidyl)indole-3-carboxamide hydrochloride] here?
**A.** 0%

**Q.** And the inhibition in vivo at 2.5 mg/kg (histamine induced asthma; 1 h)?
**A.** 60%

**Q.** With CCCCC/C=C\C\C=C/C=C/C=C/[C@@H](SC[C@H](NC(=O)CC[C@H](N)C(=O)O)C(=O)NCC(=O)O)[C@@H](O)CCCC(=O)O [LTC4] as the molecule, how does the bronchoconstriction activity [1] read?
**A.** strong bronchoconstriction activity

**Q.** With O=C(NC1CCN(CCc2c[nH]c3ccccc23)CC1)c1ccccc1 [indoramin, 3-[2-(4-benzamidopiperid-1-yl)ethyl]indole] as the molecule, how does the hypotensive effect [3] read?
**A.** possesses hypotensive activity

**Q.** With Cc1c(C(=O)NC2CCN(CCc3ccccc3)CC2)c2cc(O)ccc2n1CCc1ccccc1 [Example 16, 5-Hydroxy-2-methyl-1-(2-phenylethyl)-N-(1-(2-phenylethyl)-4-piperidyl)indole-3-carboxamide hydrochloride] as the molecule, how does the IC50 (5-lipoxygenase) read?
**A.** 1000 nM

**Q.** And the inhibition in vivo at 2.5 mg/kg (histamine induced asthma; 1 h)?
**A.** 100%

**Q.** Which bronchoconstriction activity [1] does the source give for CCCCC/C=C\C\C=C/C=C/C=C/[C@@H](SC[C@H](N)C(=O)O)[C@@H](O)CCCC(=O)O [LTE4] here?
**A.** strong bronchoconstriction activity
